As usually defined, the mortality is the percentage killed.

SMILES strings stand for the structures.

What all share (format): in vivo
The test system of series [1] is Yellow Fever Mosquito (Aedes aegypti, AEDSAE). The conditions noted are these: about 1 day-old larvae, 96-well plate from 4000 ppm DMSO master, 3 days at room temperature. As to the method:
Certain molecules disclosed in this document were tested against YFM using procedures described in the following paragraph. In the reporting of the results, the “GPA & YFM Rating Table” was used (See Table Section).
Master plates containing 400 μg of a molecule dissolved in 100 μL of dimethyl sulfoxide (DMSO) (equivalent to a 4000 ppm solution) are used. A master plate of assembled molecules contains 15 μL per well. To this plate, 135 μL of a 90:10 water/acetone mixture is added to each well. A robot is programmed to dispense 15 μL aspirations from the master plate into an empty 96-well shallow plate (“daughter” plate). There are 6 reps (“daughter” plates) created per master. The created “daughter” plates are then immediately infested with YFM larvae.
The day before plates are to be treated, mosquito eggs are placed in Millipore water containing liver powder to begin hatching (4 g. into 400 mL). After the “daughter” plates are created using the robot, they are infested with 220 μL of the liver powder/larval mosquito mixture (about 1 day-old larvae). After plates are infested with mosquito larvae, a non-evaporative lid is used to cover the plate to reduce drying. Plates are held at room temperature for 3 days prior to grading. After 3 days, each well is observed and scored based on mortality. The results are indicated in the table entitled “Table ABC: Biological Results” (See Table Section).

Series [2] concerns Beet Armyworm (Spodoptera exigua, LAPHEG). Nature of the series: Bioassay on Beet Armyworm (BAW), 128-well diet tray assay. The conditions noted are these: 168 h, 50 μg/cm^2 on artificial diet, second instar larvae, 25° C., five to seven days, average of eight wells, read-out: BAW % Control (or Mortality) rating. As for the experimental part:
(§1) Certain molecules disclosed in this document were tested against BAW and CL using procedures described in the following examples. In the reporting of the results, the “BAW & CL Rating Table” was used (See Table Section).
Bioassays on BAW were conducted using a 128-well diet tray assay. One to five second instar BAW larvae were placed in each well (3 mL) of the diet tray that had been previously filled with approximately 1.5 mL of artificial diet to which 50 μg/cm^2 of the test molecule (dissolved in 50 μL of 90:10 acetone-water mixture) had been applied (to each of eight wells) and then allowed to dry. Trays were covered with a clear self-adhesive cover, vented to allow gas exchange, and held at 25° C., 14:10 light-dark for five to seven days. Percent mortality was recorded for the larvae in each well; activity in the eight wells was then averaged. The results are indicated in the table entitled “Table ABC: Biological Results” (See Table Section).

Series [3] has as its system Cabbage Looper (Trichoplusia ni, TRIPNI). Nature of the series: Bioassay on Cabbage Looper (CL), 128-well diet tray assay. The conditions noted are these: 168 h, 50 μg/cm^2 on artificial diet, second instar larvae, 25° C., five to seven days, average of eight wells, read-out: CL % Control (or Mortality) rating. As to the method:
as §1
Bioassays on CL were conducted using a 128-well diet tray assay. one to five second instar CL larvae were placed in each well (3 mL) of the diet tray that had been previously filled with 1 mL of artificial diet to which 50 μg/cm^2 of the test molecule (dissolved in 50 μL of 90:10 acetone-water mixture) had been applied (to each of eight wells) and then allowed to dry. Trays were covered with a clear self-adhesive cover, vented to allow gas exchange, and held at 25° C., 14:10 light-dark for five to seven days. Percent mortality was recorded for the larvae in each well; activity in the eight wells was then averaged. The results are indicated in the table entitled “Table ABC: Biological Results” (See Table Section).

As to `Cc1cc([C@H]2[C@H](C(=O)Nc3ccc(Cl)c(C(=O)NC4(C#N)CC4)c3)C2(Cl)Cl)cc(Cl)c1Cl` (relative stereo) [Molecule F51, trans-2-Chloro-N-(1-cyanocyclopropyl)-5-(2,2-dichloro-3-(3,4-dichloro-5-methylphenyl)cyclopropanecarboxamido)benzamide], the “YFM % Control (or Mortality) rating” value in series [1] was “D (No activity noticed in this bioassay)”. For the same compound, the mortality at 50 µg/cm2 in series [2] and in series [3] was 50 to 100% throughout.

On to `N#CC1(NC(=O)c2cc(NC(=O)[C@H]3[C@H](c4cc(Cl)c(Cl)c(Cl)c4)C3(Cl)Cl)ccc2Cl)CC1` [Molecule F63, 2-Chloro-N-(1-cyanocyclopropyl)-5-((1R,3R)-2,2-dichloro-3-(3,4,5-trichloro-phenyl)cyclopropane-1-carboxamido)benzamide], for which the “YFM % Control (or Mortality) rating” value in series [1] is given as “A (80-100)”. Besides, the mortality at 50 µg/cm2 in series [2] and in series [3] was 50 to 100% in each case.

On to `O=C(NC1CC(F)(F)C1)c1cc(NC(=O)[C@H]2[C@H](c3ccc(C(F)(F)F)cc3)C2(Cl)Cl)ccc1Cl` (relative stereo) [Molecule F22, trans-2-Chloro-5-(2,2-dichloro-3-(4-(trifluoromethyl)phenyl)cyclopropanecarboxamido)-N-(3,3-difluorocyclobutyl)benzamide], for which, in series [1], the “YFM % Control (or Mortality) rating” value is reported as “A (80-100)”. The mortality at 50 µg/cm2 in series [2] and in series [3] was 50 to 100% in each case.

As for `N#CC1(NC(=O)c2cc(NC(=O)[C@@H]3[C@@H](c4cc(Cl)c(Cl)c(Cl)c4)C3(Cl)Cl)ccc2Cl)CC1` [Molecule F64, 2-Chloro-N-(1-cyanocyclopropyl)-5-((1S,3S)-2,2-dichloro-3-(3,4,5-trichloro-phenyl)cyclopropane-1-carboxamido)benzamide], the “YFM % Control (or Mortality) rating” value in series [1] is listed as “A (80-100)”. Moreover, the mortality at 50 µg/cm2 in series [2] and in series [3] was 50 to 100% in each case.

`O=C(NC1CC(F)(F)C1)c1cc(NC(=O)[C@H]2[C@H](c3ccc(Cl)c(F)c3)C2(Cl)Cl)ccc1Cl` (relative stereo) [PF6, trans-2-Chloro-5-(2,2-dichloro-3-(4-chloro-3-fluorophenyl)cyclopropane-1-carboxamido)-N-(3,3-difluorocyclobutyl)benzamide]: in series [1], the “YFM % Control (or Mortality) rating” value was “D (No activity noticed in this bioassay)”. Moreover, the mortality at 50 µg/cm2 in series [2] and in series [3] was 50 to 100% throughout.

Regarding `O=C(NC1CCC1)c1cc(NC(=O)C2C(c3cc(Cl)c(Cl)c(Cl)c3)C2(Cl)Cl)ccc1Cl` (stereo not drawn) [Molecule F42, trans-2-Chloro-N-cyclobutyl-5-(2,2-dichloro-3-(3,4-trichlorophenyl)cyclopropanecarboxamido)benzamide], in series [1], the “YFM % Control (or Mortality) rating” value was “D (No activity noticed in this bioassay)”. The mortality at 50 µg/cm2 in series [2] and in series [3] was 50 to 100% throughout.

For the compound `N#CC1(NC(=O)c2cc(NC(=O)[C@H]3[C@H](c4ccc(C(F)F)c(F)c4)C3(Cl)Cl)ccc2Cl)CC1` (relative stereo) [Molecule F90, trans-2-Chloro-N-(1-cyanocyclopropyl)-5-(2,2-dichloro-3-(4-(difluoromethyl)-3-fluorophenyl)cyclopropane-1-carboxamido)benzamide], the “YFM % Control (or Mortality) rating” value in series [1] is reported as “A (80-100)”. Also, the mortality at 50 µg/cm2 in series [2] and in series [3] was 50 to 100% throughout.

Consider `O=C(NC1CC1(F)F)c1cc(NC(=O)[C@H]2[C@H](c3cc(Cl)cc(Cl)c3)C2(Cl)Cl)ccc1Cl` (relative stereo) [PF23, trans-2-Chloro-5-(2,2-dichloro-3-(3,5-dichlorophenyl)cyclopropane-1-carboxamido)-N-(2,2-difluorocyclopropyl)benzamide], for which, in series [1], the “YFM % Control (or Mortality) rating” value was “A (80-100)”. Further, the mortality at 50 µg/cm2 in series [2] and in series [3] was 50 to 100% each time.

Turning to `COc1cc([C@H]2[C@H](C(=O)Nc3ccc(Cl)c(C(=O)NC4(C#N)CC4)c3)C2(Cl)Cl)cc(F)c1Br` (relative stereo) [Molecule F83, trans-5-(3-(4-Bromo-3-fluoro-5-methoxyphenyl)-2,2-dichlorocyclopropane-1-carboxamido)-2-chloro-N-(1-cyanocyclopropyl)benzamide], the “YFM % Control (or Mortality) rating” value in series [1] is “A (80-100)”. The mortality at 50 µg/cm2 in series [2] and in series [3] was 50 to 100% throughout.

`N#CC1(NC(=O)c2cc(NC(=O)[C@@H]3[C@@H](c4cc(Cl)cc(Cl)c4)C3(Cl)Cl)ccc2Cl)CC1` [Molecule F76, 2-Chloro-N-(1-cyanocyclopropyl)-5-((1S,3S)-2,2-dichloro-3-(3,5-dichloro-phenyl)cyclopropanecarboxamido)benzamide]: in series [1], the “YFM % Control (or Mortality) rating” value is on record as “A (80-100)”. Further, the mortality at 50 µg/cm2 in series [2] and in series [3] was 50 to 100% each time.

For `N#CC1(NC(=O)c2cc(NC(=O)[C@H]3[C@H](c4cc(Cl)cc(Br)c4)C3(Cl)Cl)ccc2Cl)CC1` (relative stereo) [PF4, trans-5-(3-(3-Bromo-5-chlorophenyl)-2,2-dichlorocyclopropane-1-carboxamido)-2-chloro-N-(1-cyanocyclopropyl)benzamide], the “YFM % Control (or Mortality) rating” value in series [1] is given as “A (80-100)”. Besides, the mortality at 50 µg/cm2 in series [2] and in series [3] was 50 to 100% throughout.

Take `O=C(NC1CC(F)(F)C1)c1cc(NC(=O)[C@@H]2[C@@H](c3cc(Cl)cc(Cl)c3)C2(Cl)Cl)ccc1Cl` [Molecule F74, 2-Chloro-5-((1S,3S)-2,2-dichloro-3-(3,5-dichlorophenyl)cyclopropane-1-carboxamido)-N-(3,3-difluorocyclobutyl)benzamide]: the “YFM % Control (or Mortality) rating” value in series [1] is listed as “A (80-100)”. The mortality at 50 µg/cm2 in series [2] and in series [3] was 50 to 100% in each case.

Consider `N#CC1(NC(=O)c2cc(NC(=O)[C@H]3[C@H](c4ccc(F)c(C(F)F)c4)C3(Cl)Cl)ccc2Cl)CC1` (relative stereo) [Molecule F88, trans-2-Chloro-N-(1-cyanocyclopropyl)-5-(2,2-dichloro-3-(3-(difluoromethyl)-4-fluorophenyl)cyclopropane-1-carboxamido)benzamide], for which the “YFM % Control (or Mortality) rating” value in series [1] is given as “A (80-100)”. In addition, the mortality at 50 µg/cm2 in series [2] and in series [3] was 50 to 100% throughout.

`O=C1CCC(NC(=O)c2cc(NC(=O)[C@H]3[C@H](c4ccc(F)c(Cl)c4)C3(Cl)Cl)ccc2Cl)CC1` (relative stereo) [Molecule F81, trans-2-Chloro-5-(2,2-dichloro-3-(3-chloro-4-fluorophenyl)cyclopropane-1-carboxamido)-N-(4-oxocyclohexyl)benzamide]: in series [1], the “YFM % Control (or Mortality) rating” value is given as “A (80-100)”. The mortality at 50 µg/cm2 in series [2] and in series [3] was 50 to 100% each time.

`O=C(NN1CC(CN2CCOCC2)OC1=O)c1cc(NC(=O)C2C(c3cc(Cl)cc(Cl)c3)C2(Cl)Cl)ccc1Cl` (stereo not drawn) [PF41, trans-2-Chloro-5-(2,2-dichloro-3-(3,5-dichlorophenyl)cyclopropane-1-carbox-amido)-N-(5-(morpholinomethyl)-2-oxooxazolidin-3-yl)benzamide]: the “YFM % Control (or Mortality) rating” value in series [1] is listed as “A (80-100)”. For the same compound, the mortality at 50 µg/cm2 fell in the range of 0 to 50% in series [2] and 50 to 100% in series [3].

`O=C(N[C@@H]1CON(CC(F)(F)F)C1=O)c1cc(NC(=O)C2C(c3ccc(Cl)c(Cl)c3)C2(Cl)Cl)ccc1Cl` (stereo in doubt) [Molecule F79, trans-2-Chloro-5-(2,2-dichloro-3-(3,4-dichlorophenyl)cyclopropane-1-carboxamido)-N—((R)-3-oxo-2-(2,2,2-trifluoroethyl)isoxazolidin-4-yl)benzamide]: the “YFM % Control (or Mortality) rating” value in series [1] is listed as “A (80-100)”. The mortality at 50 µg/cm2 in series [2] and in series [3] was 50 to 100% throughout.

The values are drawn from patent US9795139B2, “Molecules having pesticidal utility, and intermediates, compositions, and processes, related thereto” (priority 2015, dated 2017).
